Assay results as given in patent US6402037B1, “Two-photon upconverting dyes and applications” (The Research Foundation of State University of New York, priority 1995, dated 2002).
Marks after values point to notes of the source that are not given here. Each block holds one compound with its values, some of them ahead of it.

Columns and labels:
[1] = Decomposition temperature (Td) by DSC thermogram; type: physicochemical; settings: DSC under nitrogen
Method: Decomposition temperature (“Td”) of each dye was measured by differential scanning calorimetry (“DSC”) thermogram using a Shimadzu DSC-50GPC under nitrogen. Elemental: analysis were performed by Atlantic Microlab, Inc., P.O. Box 2288, Norcross, Ga. 30019. Proton NMR spectra, TV/visible absorption spectra, and UV/visible emission spectra were recorded using a Varian Gemini-300 300 MHz spectrometer, a Shimazdu UV-3101 PC spectrophotometer, and a Shimazdu RF5000U spectrofluorophotometer, respectively: TV/visible absorption spectra of dyes prepared in these Examples in DMF, are provided in FIG. 3.

[2] = Optical characterization of the dye-doped composite glasses; type: physicochemical
Method: Emission spectra were collected on a Shimadzu RF-5000U Spectrofluorophotometer (90° geometry) having a resolution of ±2 nm. For solution state measurements, a fluorometric quartz cuvette was used. For the composite glass, the emission was obtained from the surface of the glass (90° geometry) due to significant primary absorption. […]

[3] = Optical characterization of the solution state (ethanol); settings: for fluorescence quantum yield: vs Rhodamine-6G
[4] = Two-photon pumped cavity lasing of dye-doped matrices (1.06 μm pump)
Method: Two-photon pumped cavity lasing experiments were conducted using a Q-switched Nd-YAG pulsed laser source having a wavelength of 1.06 μm, a pulsewidth of about 10 ns, a spectral width of about 1 cm^−1, an angular divergence of about 1.3 mrad, and a variable repetition rate of 1-10 Hz. A 1 cm-long quartz cuvette filled with dye1 solution in cyclopentanone (do≈8×10^−2 to 4×10^−2M) and a 7 mm-long, dye1 -doped poly(HEMA) rod (do,≈8×10^−3 M), prepared in accordance with Example 12, were used separately for two-photon pumped (“TPP”) lasing observation. The 1.06 μm-pump laser beam was focused on the center of the cuvette or sample rod, and a strong orange-red fluorescence emission was observed when the infrared pump intensity reached several MW/cm^2. Once the pump intensity further increased to a certain threshold level, simultaneous forward and backward highly directional superradiation could be observed from the solution or rod samples. To achieve cavity lasing, two parallel plane dielectrc-coating mirrors were employed to form a cavity. The pump beam, focused through a f-10 cm lens, was coupled into the cavity by normal incidence. The reflectivity was r=10% at 1.06 μm and r=99% at 600 nm for the front mirror (input coupler) and r=10% at 1.06 μm and r=50% at 600 nm for the rear mirror (output coupler). The total cavity length was 7˜8 cm, and the cuvette or sample rod was located at the center of the cavity. […] FIGS. 11A-11C show the emission spectra of the same 7 mm-long, dye1 -doped rod sample under the following different excitation conditions: 532 nm one-photon excited fluorescence emission (FIG. 11A), 1.06 μm two-photon excited fluorescence emission (FIG. 11B), and 1.06 μm pumped cavity lasing (FIG. 11C). Each spectrum was obtained using a grating -spectrograph in conjunction with an optical multi-channel analyzer (OMA-III) system. The difference between FIGS. 11A and 11B can be explained by a volume reabsorption effect of the emission. To obtain these two spectra, the excitation beam was incident on the rod end at a +45° angle, and the fluorescence was measured at a −45° angle. In the case of FIG. 11A, the emission was mainly from a shallow surface layer of the sample because of the very short penetration depth of the 532 nm pump radiation, and therefore, the reabsorption effect within the sample can be neglected. However, for the case of FIG. 11B, the incident infrared beam could pass through the whole rod length without obvious depletion, and, consequently, collected fluorescence signals of different spectral components were propagated within the sample for a considerable distance. […] Cavity lasing occurred at the central region of the two-photon absorption (“TPA”) induced fluorescence band, but the lasing bandwidth (˜8 nm) was much narrower than the ordinary one-photon excited fluorescence band width (˜60 nm) due to the lasing threshold requirement. In addition, a red-shift of the central lasing wavelength was observed as the pump energy increased. This shift may be caused by the local temperature change of the sample rod.
Compared to the smooth temporal profile of the 10 ns pump pulse, the lasing pulses manifested much shorter rise- and fall-times, i.e. ≦1.5 ns limited by the resolution of the detecting system. […]
The lasing output/pump input characteristic curve is given in FIG. 13 for the rod cavity lasing. […] However, at this pump level the measured one-pass two-photon absorption in the 7 mm-long rod was only about 23%. […]

[5] = as above; remark: listed apart in the source
[6] = TPA induced fluorescence and optical limiting in dye1-doped epoxy; type: physicochemical
Text: Dye1, prepared in accordance with Example 6, was dispersed in an optical quality epoxy compound, EPO-TEX301 (Epoxy Technology, Inc., Billerica, Mass.) by dissolving the dye powder in the liquid Part A and Part B of the epoxy. Undoped and dye1-doped epoxies were cast by blade casting techniques. Film thickness was the same (0.3 mm) for both films, and the dopant concentration for the doped film was do=0.003 M.
A 2 cm-long, dye1-doped epoxy (EPO-TEX301) rod with a concentration of do=0.004M was used for TPA induced fluorescence and optical limiting measurements. An incident near infrared laser beam, having a wavelength of 1.06 μm, a pulsewidth of about 8 ns, a spectral width of about 1 cm^−1, and a repetition rate of 3 Hz, was provided by a Q-switched Nd-YAG pulsed laser source. The incident 1.06 μm radiation on the sample was a quasi-parallel laser beam of about 1 mm size with a nearly uniform transverse intensity distribution. An orange-red fluorescence emission was readily observed by the human eye in a dark room when the 1.06 μm incident beam intensity reached several MW/cm^2. […] Each data point was averaged over 10 laser pulses by using a gated integrator and boxcar averager. The solid line is the best fitted curve based on the square law that TPA processes follow.
where I(L) is the transmitted beam intensity, Io, is the incident beam intensity, L is the thickness of the sample, and β is the TPA coefficient of the sample medium. In the derivation of Equation (1), it is assumed that the linear attenuation of the medium can be neglected and the beam has a nearly uniform transverse intensity distribution within the medium. Using Equation (1), the value of β can be determined by measuring the transmitted intensity versus the incident intensity for a sample medium with a given L value. Furthermore, the TPA coefficient β (in units of cm/GW) of a given sample is determined by
Here, No is the molecular density of the dopant (in units of 1 cm^3), σ2 is the molecular TPA coefficient (or cross-section) of the same dopant (in units of cm^4/GW, do is the concentration of the dopant compound in the matrix (in units of M), and finally NA is Avogadro's number. For known β and do, the value of σ2 can be calculated from Equation (2). Another expression for molecular TPA coefficient (or cross-section), used in some reference papers, is
where hυ is the energy of an incident photon, and σ′2 has units of cm^4/photon/sec.
The measured transmitted intensity as a function of the incident intensity for the 2 cm-long, dye1-doped epoxy rod is shown in FIG. 9. Two groups of experimental data were obtained in two measurement cycles, and each data point was an average result over 10 laser pulses. In FIG. 9, the solid line is the theoretical curve predicted by Equation (1) using a best fit parameter of β=6 cm/GW, and the dashed line is similarly constructed by assuming that there is no TPA (β=0). Consequently, FIG. 9 evidences the TPA induced optical limiting behavior of dye1 at incident intensity levels of 50-250 MW/cm^2. Using a value of β=6 cm/GW and Equations (2) and (3), the values of molecular TPA cross-section of dye1 were estimated as σ2=2.5×10^−18 cm^4/GW and σ′2=4.7×10^−46 cm^4/photon/sec. These measured values of σ2 and σ2 for dye1 in EPO-TEX301 matrix are 2˜3 orders of magnitude greater than the corresponding values of Rhodamine dyes, as reported by Rapp et al., Chem. Phys. […] The damage threshold of the 2 cm-long, dye1-doped epoxy rod was measured as 250˜300 MW/cm^2.

[7] = cyclopentanone solution, 0.001 M
[8] = EPO-TEX301 matrix, 1.06 μm, from β

Decomposition temperature (Td) [1]: 266 °C
Structure (SMILES): CN(C)c1ccc(/C=C/c2cc[n+](C)cc2)cc1.c1ccc([B-](c2ccccc2)(c2ccccc2)c2ccccc2)cc1 [dye2, trans-4-[p-(N,N-dimethylamino)styryl]-N-methylpyridinium tetraphenyborate]

Structure (SMILES): CCN(CCO)c1ccc(/C=C/c2cc[n+](CCO)cc2)cc1.[I-] [ASPI, trans-4-[p-(N-ethyl-N-hydroxyethylamino)styryl]-N-hydroxyethylpyridinium iodide]
solubility (Solubility; ethanol, organic solvent or mixture): 6.1 mM | solubility (Solubility; in PMMA): insolubility | solubility (Solubility; in methyl methacrylate monomer): insolubility | Florescence FWHM ([2]; Composite Glass, single dye): 45 nm | Fluorescence Max. ([2]; Composite Glass, single dye): 586 nm | Florescence FWHM, ASPI emission ([2]; composite glass containing both dyes): 41 nm | Fluorescence Max., ASPI emission ([2]; composite glass containing both dyes, reconstructed peak): 594 nm | fluorescence quantum yield ([3]; 1.8×10^−6 M, excited at 482 nm): 6×10^−3 | fluorescence quantum yield ([3]; 2.6×10^−6 M, excited at 509 nm): 7×10^−3 | Quantum Yield ([3]; Solution State, Table 2): 6.5 × 10^−3 | Absorbance Max. ([3]; ethanol): 483 nm | Stokes Shift ([3]; ethanol): 118 nm | molar absorptivity ([3]; ethanol, at 483 nm): 68000 M⁻¹ cm⁻¹ | Fluorescence Max. ([3]; ethanol, ASPI 3.1×10^−3 M, Rhodamine-6G 6.5×10^−5 M, excitation 509 nm): 600 nm | Florescence FWHM ([3]; ethanol, same concentrations, excitation 509 nm): ~38 nm | Decomposition temperature (Td) [1]: 270 °C

absorption bandwidth ([4]; poly(HEMA) 0.008M): 80 nm | linear absorption peak ([4]; poly(HEMA) 0.008M): 485 nm | one-photon fluorescence bandwidth ([4]; poly(HEMA) 0.008M): 55 nm | one-photon fluorescence peak ([4]; poly(HEMA) 0.008M): 577 nm | molecular TPA cross-section σ2 ([4]; poly(HEMA) rod, 1.06 μm, from nonlinear absorption data): ≈ 1.2×10^−46 cm^4-sec | one-photon fluorescence bandwidth ([5]; Vycor glass 0.0015M): 60 nm | one-photon fluorescence peak ([5]; Vycor glass 0.0015M): 575 nm | absorption bandwidth [5, 7]: 100^a nm | linear absorption peak [5, 7]: 480^a nm | one-photon fluorescence bandwidth [5, 7]: 58^a nm | one-photon fluorescence peak [5, 7]: 590^a nm | one-photon fluorescence bandwidth ([5]; sol-gel glass 0.0015 M): 55 nm | one-photon fluorescence peak ([5]; sol-gel glass 0.0015 M): 568 nm | strong one-photon absorption range ([6]; 0.3 mm epoxy film, 0.003 M): 350˜560 nm | TPA coefficient β (best fit) ([6]; 2 cm EPO-TEX301 rod, 0.004M, 1.06 μm): 6 cm/GW | TPA cross-section greater than values of Rhodamine dyes ([6]; EPO-TEX301 matrix): 2˜3 orders of magnitude | molecular TPA cross-section σ2 [6, 8]: 2.5×10^−18 cm^4/GW | molecular TPA cross-section σ′2 [6, 8]: 4.7×10^−46 cm^4/photon/sec | Decomposition temperature (Td) [1]: 264 °C
Structure (SMILES): CCN(CCO)c1ccc(/C=C/c2cc[n+](C)cc2)cc1.c1ccc([B-](c2ccccc2)(c2ccccc2)c2ccccc2)cc1 [dye1, trans-4-[p-(N-ethyl-N-hydroxyethylamino)styryl]-N-methylpyridinium tetraphenyborate]
